Experimental data published in patent US20040192771A1, “Ether compounds and compositions for cholesterol management and related uses” (priority 2001, published 2004).
Read-outs that look alike come from different tables or passages of the source.

What was measured:
[1] = test system: obese female Zucker rats; assay: Oral daily treatment of obese female Zucker rats for fourteen days; serum lipids and glycemic control indicators; assay type: in vivo; conditions: Rattus norvegicus, percent change from study prebleed; for change in vivo at 30 mg/kg/day: 30 mg/kg/day oral; for change in vivo at 100 mg/kg/day: 100 mg/kg/day oral; for change in vivo at 90 mg/kg/day: 90 mg/kg/day oral
Procedure: In a number of different experiments, illustrative compounds of the invention are administered daily at a dose of up to 100 mg/kg to chow fed obese female Zucker rats for fourteen days in the morning by oral gavage in 1.5% carboxymethylcellulose/0.2% Tween 20 or 20% ethanol/80% polyethylene glycol (dosing vehicles). Animals are weighed daily. Animals are allowed free access to rodent chow and water throughout the study except on days of blood sampling where food is restricted for six hours prior to blood sampling. Blood glucose is determined after the 6 hour fast in the afternoon without anesthesia from a tail vein. Serum is also prepared from pretreatment blood samples subsequently obtained from the orbital venous plexus (with O2/CO2 anesthesia) and following the fourteenth dose at sacrifice from the heart following O2/CO2 anesthesia. Serums are assayed for lipoprotein cholesterol profiles, triglycerides, total cholesterol, Non HDL cholesterol, HDL cholesterol, the ratio of HDL cholesterol to that of Non HDL cholesterol, insulin, non esterified fatty acids, and beta hydroxy butyric acid. The percent body weight gain and the ratio of liver to body weight is also determined. These are shown as absolute values or as a percent change of the pretreatment values in Table C. [drawing 479] [drawing 480]

[2] = test system: primary rat hepatocytes; assay: Inhibition of lipid synthesis ([1-14C]-acetate incorporation) in primary cultures of rat hepatocytes; assay type: cell-based; conditions: Hepatocyte, total lipid synthesis, 4 hours incubation
Procedure: Compounds were tested for inhibition of lipid synthesis in primary cultures of rat hepatocytes. Male Sprague-Dawley rats were anesthetized with intraperitoneal injection of sodium pentobarbital (80 mg/kg). Rat hepatocytes were isolated essentially as described by the method of Seglen (Seglen, P. O. Hepatocyte suspensions and cultures as tools in experimental carcinogenesis. J. Toxicol. Environ. Health 1979, 5, 551-560). Hepatocytes were suspended in Dulbecco's Modified Eagles Medium containing 25 mM D-glucose, 14 mM HEPES, 5 mM L-glutamine, 5 mM leucine, 5 mM alanine, 10 mM lactate, 1 mM pyruvate, 0.2% bovine serum albumin, 17.4 mM non-essential amino acids, 20% fetal bovine serum, 100 nM insulin and 20 μg/mL gentamycin) and plated at a density of 1.5×10^5 cells/cm^2 on collagen-coated 96-well plates. Four hours after plating, media was replaced with the same media without serum. Cells were grown overnight to allow formation of monolayer cultures. Lipid synthesis incubation conditions were initially assessed to ensure the linearity of [1-^14C]-acetate incorporation into hepatocyte lipids for up to 4 hours. Hepatocyte lipid synthesis inhibitory activity was assessed during incubations in the presence of 0.25 μCi [1-^14C]-acetate/well (final radiospecific activity in assay is 1 Ci/mol) and 0, 1, 3, 10, 30, 100 or 300 μM of compounds for 4 hours. At the end of the 4-hour incubation period, medium was discarded and cells were washed twice with ice-cold phosphate buffered saline and stored frozen prior to analysis. To determine total lipid synthesis, 170 μl of MicroScint-E® and 50 μl water was added to each well to extract and partition the lipid soluble products to the upper organic phase containing the scintillant. Lipid radioactivity was assessed by scintillation spectroscopy in a Packard TopCount NXT.

[3] = 168 h, week 1, read-out: Glucose
[4] = 168 h, week 1, read-out: Insulin
[5] = 336 h, week 2, read-out: Glucose
[6] = 336 h, week 2, read-out: Insulin
[7] = 336 h, week 2, read-out: Non-HDL-C
[8] = 168 h, week 1, read-out: Non-HDL-C

Structure (SMILES)	change in vivo at 30 mg/kg/day ([1]; 168 h, week 1, read-out: HDL-C)	change in vivo at 30 mg/kg/day [1, 4]	change in vivo at 30 mg/kg/day ([1]; 168 h, week 1, read-out: TC)	change in vivo at 30 mg/kg/day ([1]; 168 h, week 1, read-out: TG)	change in vivo at 30 mg/kg/day [1, 5]	change in vivo at 30 mg/kg/day ([1]; 336 h, week 2, read-out: HDL-C)	change in vivo at 30 mg/kg/day [1, 6]	change in vivo at 100 mg/kg/day [1, 3]	change in vivo at 100 mg/kg/day ([1]; 168 h, week 1, read-out: HDL-C)	change in vivo at 100 mg/kg/day [1, 4]	change in vivo at 100 mg/kg/day [1, 8]	change in vivo at 100 mg/kg/day ([1]; 168 h, week 1, read-out: TC)	change in vivo at 100 mg/kg/day ([1]; 168 h, week 1, read-out: TG)	change in vivo at 100 mg/kg/day [1, 5]	change in vivo at 100 mg/kg/day ([1]; 336 h, week 2, read-out: HDL-C)	change in vivo at 100 mg/kg/day [1, 6]	change in vivo at 100 mg/kg/day [1, 7]	change in vivo at 100 mg/kg/day ([1]; 336 h, week 2, read-out: TC)	change in vivo at 100 mg/kg/day ([1]; 336 h, week 2, read-out: TG)	IC50 [2]	other results
CC(CO)(CCCCOCCCC(C)(CO)c1ccccc1)c1ccccc1 (centres unmarked) [Compound 127, 6-(5-Hydroxy-4-methyl-4-phenylpentyloxy)-2-methyl-2-phenylhexan-1-ol]	-2%	3%	3%	0%	-3%	-20%	0%	–	–	–	–	–	–	–	–	–	–	–	–	–	change in vivo at 30 mg/kg/day [1, 3]: 5%; change in vivo at 30 mg/kg/day [1, 7]: 45%; change in vivo at 30 mg/kg/day ([1]; 336 h, week 2, read-out: TC): 2%; change in vivo at 30 mg/kg/day ([1]; 336 h, week 2, read-out: TG): 21%
CC(C)(CCCCOCCCCC(C)(C)COC1CCCCO1)COC1CCCCO1 (centres unmarked) [Compound 122, 2-{6-[5,5-Dimethyl-6-(tetrahydropyran-2-yloxy)-hexyloxy]-2,2-dimethylhexyloxy}-tetrahydropyran]	–	–	–	–	–	–	–	-7%	43%	-18%	46%	42%	-1%	9%	79%	-20%	92%	79%	22%	20 µM	–
CC(CO)(CCCCOCCCCC(C)(CO)c1ccccc1)c1ccccc1 (centres unmarked) [Compound 111, 6-(6-Hydroxy-5-methyl-5-phenylhexyloxy)-2-methyl-2-phenylhexan-1-ol]	-4%	-37%	-17%	-14%	-18%	-28%	-36%	–	–	–	–	–	–	–	–	–	–	–	–	106 µM	change in vivo at 30 mg/kg/day [1, 8]: -33%; change in vivo at 30 mg/kg/day [1, 7]: -1%; change in vivo at 30 mg/kg/day ([1]; 336 h, week 2, read-out: TC): -20%; change in vivo at 30 mg/kg/day ([1]; 336 h, week 2, read-out: TG): -7%
CC(C)(CO)CCCCOCCCC(C)(C)CO [Compound 126, 6-(5-Hydroxy-4,4-dimethylpentyloxy)-2,2-dimethylhexan-1-ol]	–	–	–	–	–	–	–	68%	630%	240%	-28%	119%	-63%	9%	786%	145%	-17%	161%	-58%	17 µM	–
CC(C)(CO)CCCCCOCCCCCC(C)(C)CO [Compound 131, 7-(7-Hydroxy-6,6-dimethylheptyloxy)-2,2-dimethylheptan-1-ol]	–	–	–	–	–	–	–	-6%	292%	40%	-79%	85%	-91%	-5%	289%	-1%	-57%	106%	-88%	3.8 µM	–
CC(C)(CCCCOCCCCC(C)(C)CCC(=O)O)CCC(=O)O [Compound 145, 4,4,14,14-Tetramethyl-9-oxaheptadecane-1,17-dioic acid]	–	–	–	–	–	–	–	-1%	13%	-34%	-50%	-3%	-80%	16%	39%	-45%	-30%	21%	-73%	22 µM	–
CC(C)(CO)Cc1cccc(Oc2cccc(CC(C)(C)CO)c2)c1 [Compound 136, 3-{3-[3-(3-Hydroxy-2,2-dimethylpropyl)-phenoxy]-phenyl}-2,2-dimethylpropan-1-ol]	–	–	–	–	–	–	–	–	–	–	–	–	–	–	–	–	–	–	–	98 µM	change in vivo at 90 mg/kg/day [1, 3]: -20%; change in vivo at 90 mg/kg/day ([1]; 168 h, week 1, read-out: HDL-C): 22%; change in vivo at 90 mg/kg/day [1, 4]: -57%; change in vivo at 90 mg/kg/day [1, 8]: -12%; change in vivo at 90 mg/kg/day ([1]; 168 h, week 1, read-out: TC): 1%; change in vivo at 90 mg/kg/day ([1]; 168 h, week 1, read-out: TG): 13%; change in vivo at 90 mg/kg/day [1, 5]: -3%; change in vivo at 90 mg/kg/day ([1]; 336 h, week 2, read-out: HDL-C): -4%; change in vivo at 90 mg/kg/day [1, 6]: -45%; change in vivo at 90 mg/kg/day [1, 7]: 23%; change in vivo at 90 mg/kg/day ([1]; 336 h, week 2, read-out: TC): 9%; change in vivo at 90 mg/kg/day ([1]; 336 h, week 2, read-out: TG): 18%
CC(C)(CO)CCCC1CCCC(CCCC(C)(C)CO)O1 (centres unmarked) [Compound 141, 5-[6-(5-Hydroxy-4,4-dimethylpentyl)-tetrahydropyran-2-yl]-2,2-dimethylpentan-1-ol]	–	–	–	–	–	–	–	-14%	75%	-2%	-70%	28%	-74%	-9%	127%	10%	-31%	70%	-47%	39 µM	–
CC(C)(CO)CCCOCCOCCCC(C)(C)CO [Compound 149, 5-[2-(5-Hydroxy-4,4-dimethylpentyloxy)-ethoxy]-2,2-dimethylpentan-1-ol]	37%	-40%	-7%	-37%	-27%	17%	-26%	–	–	–	–	–	–	–	–	–	–	–	–	–	change in vivo at 30 mg/kg/day [1, 3]: -20%; change in vivo at 30 mg/kg/day [1, 8]: -48%; change in vivo at 30 mg/kg/day [1, 7]: -27%; change in vivo at 30 mg/kg/day ([1]; 336 h, week 2, read-out: TC): -7%; change in vivo at 30 mg/kg/day ([1]; 336 h, week 2, read-out: TG): -30%
